In US20100041597A1, “PEPTIDES TARGETED TO PROTEIN KINASE C ISOFORMS AND USES THEREOF” (priority 2005, published 2010):

What was measured:
[1] = tested on: PKC-ε; experiment: In vitro competition with anti-PKC-ε antibody, Protocol B, IMR-32 cells; format: binding, human
Description: (§1) The ability of the peptides PRE 2 and PRE 3 (see Table 3) to interfere with the binding of a PKC-α-specific polyclonal antibody (Santa Cruz Biotechnology, Inc.) to PKC-α was determined using a modified version of the protocol outlined above in which the test peptide was added directly to the cell extract prior to electrophoresis at a concentration of either 5× or 15× the concentration of the protein applied to each well of the gel for the Western blots (20 μg).
Peptides PRE 2, PRE 3 and PRE 4 (see Table 3) were tested for their ability to interfere with the binding of isoform-specific polyclonal antibodies (Santa Cruz Biotechnology, Inc.) to PKC-ε using the general protocol described in Example 3. Two bands, representing alternate splicing variants of PKC-ε, were identified on the Western blot using this anti-PKC-ε antibody.

[2] = molecular target: T1, PKC-α (Homo sapiens, UniProt P17252); experiment: In vitro competition with anti-PKC-α antibody, Protocol B (peptide added to cell extract before electrophoresis), IMR-32 cells; format: binding; design: subcellular localisation of endogenous PKC-α in IMR-32 cells; endogenous in cells; host or cells: IMR-32; details: PKC-α; for Band Intensity: control band intensity 302.5, Table 9
Description: (§2) Peptides PRE 3 and PRE 4 (see Table 3) were tested for their ability to interfere with the binding of isoform-specific polyclonal antibodies (Santa Cruz Biotechnology, Inc.) to PKC-α, PKC-βI or PKC-βII using the general protocol described in Example 3.

[3] = molecular target: T1, PKC-α; experiment: Subcellular localisation of PKC-α in IMR-32 cells; format: cell-based; design: subcellular localisation of endogenous PKC-α in IMR-32 cells; endogenous in cells; host or cells: IMR-32; details: 10 mg/ml, pinocytic endocytosis
Description: Peptides PRE 3 or PRE 4 (10 mg/ml) were introduced into human neuroblastoma cells (IMR-32) by pinocytic endocytosis. The cells were fixed and stained with rabbit PKC-A primary antibody and anti-rabbit Alexa-488 or Alexa-800 secondary antibody.
In most of the cells PKC-α can be seen to be located in the cytoplasm, around the nucleus and at the plasma membrane (where it becomes activated).

[4] = molecular target: PKC-βI (Homo sapiens, UniProt P05771); experiment: In vitro competition with anti-PKC-βI antibody, Protocol B, IMR-32 cells; format: binding; design: PRE 3 and PRE 4 in IMR-32 Neuroblastoma Cells: Protocol B; endogenous in cells; host or cells: IMR-32; details: for Band Intensity: control band intensity 170.5, Table 9
Description: as §1, §2

[5] = molecular target: PKC-βII (Homo sapiens, UniProt P05771); experiment: In vitro competition with anti-PKC-βII antibody, Protocol B, IMR-32 cells; format: binding; design: PRE 3 and PRE 4 in IMR-32 Neuroblastoma Cells: Protocol B; endogenous in cells; host or cells: IMR-32; details: for Band Intensity: control band intensity 98.6, Table 9
Description: as §2

[6] = tested on: PKC-β; experiment: In vitro competition with anti-PKC-β antibody, Protocol A, IMR-32 cells; format: binding, human; details: for Band Intensity / Inhibition (%) / Relative Intensity (%): PKC-β, IMR-32, Table 6
Description: Cell lysates from either IMR-32 (human neuroblastoma) cells or C6Cx43 cells (rat glioma transfected cells overexpressing connexin 43) were obtained using standard protocols and the proteins of the lysate were separated by SDS PAGE electrophoresis and electrotransferred onto a nitrocellulose membrane. The membrane was incubated for 30 minutes in blocking buffer (TBST) containing the test peptide at either 5× or 20× the concentrations of the primary antibody. A primary polyclonal antibody specific for PKC-α (Santa Cruz Biotechnology, Inc., CA) was then added (15 μg/ml) and the membrane incubated for a further 45 minutes. Finally, the primary antibody was detected with a secondary antibody conjugated to alkaline phosphatase using standard procedures. The intensity of the band corresponding to PKC-α was assessed by scanning and densitometry using the Gel-Pro software (Media Cybernetics) to obtain relative band intensities (average of 3 replicas). Control assays were conducted as described above except that blocking buffer without peptide was used.
Peptides PRE 1, PRE 2 and PRE 3 (see Table 3) were tested for their ability to interfere with the binding of a PKC-β-specific polyclonal antibody (Santa Cruz Biotechnology, Inc.) to PKC-β using the general protocol described in Example 1. […] It is worth noting in this regard that PKC-α and PKC-β belong to the same sub-group of PKCs (cPKCs).

Chain of PKC-βII (P05771 1-673 isoform P05771-2): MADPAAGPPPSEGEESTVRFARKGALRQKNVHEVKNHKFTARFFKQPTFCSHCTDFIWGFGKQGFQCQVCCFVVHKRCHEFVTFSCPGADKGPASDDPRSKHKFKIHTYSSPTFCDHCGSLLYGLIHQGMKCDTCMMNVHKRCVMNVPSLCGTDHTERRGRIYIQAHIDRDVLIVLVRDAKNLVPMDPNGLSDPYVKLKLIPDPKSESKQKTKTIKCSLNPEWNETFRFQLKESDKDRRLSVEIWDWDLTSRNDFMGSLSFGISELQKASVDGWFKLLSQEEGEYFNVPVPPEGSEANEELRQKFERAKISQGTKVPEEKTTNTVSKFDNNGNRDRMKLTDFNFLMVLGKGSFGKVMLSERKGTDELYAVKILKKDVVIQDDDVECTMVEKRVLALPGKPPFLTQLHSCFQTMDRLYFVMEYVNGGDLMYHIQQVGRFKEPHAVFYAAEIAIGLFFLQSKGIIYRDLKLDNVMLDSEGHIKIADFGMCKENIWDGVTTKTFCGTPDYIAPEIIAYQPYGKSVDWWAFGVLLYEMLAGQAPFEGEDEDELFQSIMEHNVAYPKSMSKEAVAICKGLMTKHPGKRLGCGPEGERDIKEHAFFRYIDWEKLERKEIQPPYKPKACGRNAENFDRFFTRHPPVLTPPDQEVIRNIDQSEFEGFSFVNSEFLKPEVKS
Chain of PKC-βI (P05771 whole entry): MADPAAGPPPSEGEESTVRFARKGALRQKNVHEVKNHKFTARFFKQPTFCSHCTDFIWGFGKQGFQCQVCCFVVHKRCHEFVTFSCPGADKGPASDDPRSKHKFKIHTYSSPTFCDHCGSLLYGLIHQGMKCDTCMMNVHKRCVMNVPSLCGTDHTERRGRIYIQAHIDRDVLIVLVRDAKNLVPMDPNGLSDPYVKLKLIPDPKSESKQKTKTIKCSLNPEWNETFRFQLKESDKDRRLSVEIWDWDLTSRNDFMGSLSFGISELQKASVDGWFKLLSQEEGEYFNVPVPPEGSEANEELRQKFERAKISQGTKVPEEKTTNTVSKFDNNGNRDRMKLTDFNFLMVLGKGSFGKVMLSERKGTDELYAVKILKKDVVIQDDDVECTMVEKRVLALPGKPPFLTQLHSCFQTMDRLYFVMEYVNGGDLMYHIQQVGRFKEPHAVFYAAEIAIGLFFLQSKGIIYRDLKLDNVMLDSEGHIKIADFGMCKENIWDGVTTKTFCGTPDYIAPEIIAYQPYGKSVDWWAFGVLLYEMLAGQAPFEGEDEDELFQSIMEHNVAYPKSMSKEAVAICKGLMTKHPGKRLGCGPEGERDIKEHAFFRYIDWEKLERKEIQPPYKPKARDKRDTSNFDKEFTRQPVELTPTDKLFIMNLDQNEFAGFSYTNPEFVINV

Ac-KDAQNLIGISI-NH2 [PRE 4, Ac-KDAQNLIGISI-NH2]
effect on antibody binding to PKC-ε [1]: some cross-reactivity with PKC-ε | Band Intensity ([1]; 20 μg, PKC-ε Band 1, Table 10): 184.38 | Inhibition (%) ([1]; 20 μg, PKC-ε Band 1, Table 10): 42.9% | Relative Intensity (%) ([1]; 20 μg, PKC-ε Band 1, Table 10): 57.1% | Band Intensity ([1]; 20 μg, PKC-ε Band 2, Table 10): 152.66 | Inhibition (%) ([1]; 20 μg, PKC-ε Band 2, Table 10): 46.6% | Relative Intensity (%) ([1]; 20 μg, PKC-ε Band 2, Table 10): 53.33% | Band Intensity ([1]; 50 μg, PKC-ε Band 1, Table 10): 0.0 | Inhibition (%) ([1]; 50 μg, PKC-ε Band 1, Table 10): 100.0% | Relative Intensity (%) ([1]; 50 μg, PKC-ε Band 1, Table 10): 0.0% | Band Intensity ([1]; 50 μg, PKC-ε Band 2, Table 10): 0.0 | Inhibition (%) ([1]; 50 μg, PKC-ε Band 2, Table 10): 100.0% | Relative Intensity (%) ([1]; 50 μg, PKC-ε Band 2, Table 10): 0.0% | Band Intensity ([1]; 100 μg, PKC-ε Band 1, Table 10): 0.0 | Inhibition (%) ([1]; 100 μg, PKC-ε Band 1, Table 10): 100.0% | Relative Intensity (%) ([1]; 100 μg, PKC-ε Band 1, Table 10): 0.0% | Band Intensity ([1]; 100 μg, PKC-ε Band 2, Table 10): 0.0 | Inhibition (%) ([1]; 100 μg, PKC-ε Band 2, Table 10): 100.0% | Relative Intensity (%) ([1]; 100 μg, PKC-ε Band 2, Table 10): 0.0% | inhibition at 0.1 mg ([2]; 100 μg, Table 9): 89.4% | remaining activity at 0.1 mg ([2]; 100 μg, Table 9, read-out: Relative Intensity (%)): 10.6% | Band Intensity ([2]; 100 μg): 32.2 | inhibition at 0.2 mg ([2]; 200 μg, Table 9): 99.5% | remaining activity at 0.2 mg ([2]; 200 μg, Table 9, read-out: Relative Intensity (%)): 0.5% | Band Intensity ([2]; 200 μg): 1.5 | inhibition at 0.3 mg ([2]; 300 μg, Table 9): 100% | remaining activity at 0.3 mg ([2]; 300 μg, Table 9, read-out: Relative Intensity (%)): 0% | Band Intensity ([2]; 300 μg): 0.0 | effect on subcellular localisation of PKC-α [3]: prevented translocation of PKC-α to the membrane | effect on antibody binding to PKC-βI [4]: some cross-reactivity | inhibition at 0.1 mg ([4]; 100 μg, PKC-βI, Table 9): 34% | remaining activity at 0.1 mg ([4]; 100 μg, PKC-βI, Table 9, read-out: Relative Intensity (%)): 66% | Band Intensity ([4]; 100 μg, PKC-βI): 112.5 | inhibition at 0.2 mg ([4]; 200 μg, PKC-βI, Table 9): 100% | remaining activity at 0.2 mg ([4]; 200 μg, PKC-βI, Table 9, read-out: Relative Intensity (%)): 0% | Band Intensity ([4]; 200 μg, PKC-βI): 0.0 | inhibition at 0.3 mg ([4]; 300 μg, PKC-βI, Table 9): 100% | remaining activity at 0.3 mg ([4]; 300 μg, PKC-βI, Table 9, read-out: Relative Intensity (%)): 0% | Band Intensity ([4]; 300 μg, PKC-βI): 0.0 | effect on antibody binding to PKC-βII [5]: some cross-reactivity | inhibition at 0.1 mg ([5]; 100 μg, PKC-βII, Table 9): 29% | remaining activity at 0.1 mg ([5]; 100 μg, PKC-βII, Table 9, read-out: Relative Intensity (%)): 69.5% | Band Intensity ([5]; 100 μg, PKC-βII): 69.58 | inhibition at 0.2 mg ([5]; 200 μg, PKC-βII, Table 9): 100% | remaining activity at 0.2 mg ([5]; 200 μg, PKC-βII, Table 9, read-out: Relative Intensity (%)): 0% | Band Intensity ([5]; 200 μg, PKC-βII): 0.0 | inhibition at 0.3 mg ([5]; 300 μg, PKC-βII, Table 9): 100% | remaining activity at 0.3 mg ([5]; 300 μg, PKC-βII, Table 9, read-out: Relative Intensity (%)): 0% | Band Intensity ([5]; 300 μg, PKC-βII): 0.0

RRKKGGKDFVVKR [PRE 1]
effect on antibody binding to PKC-β [6]: some cross reactivity | Band Intensity ([6]; 75 μg): 0.825 | Inhibition (%) ([6]; 75 μg): 28.9% | Relative Intensity (%) ([6]; 75 μg): 71.1% | Band Intensity ([6]; 300 μg): 0.528 | Inhibition (%) ([6]; 300 μg): 54.5% | Relative Intensity (%) ([6]; 300 μg): 45.5%
